From article PMC5051147, “Ester Hydrolysis Differentially Reduces Aconitine-Induced Anti-hypersensitivity and Acute Neurotoxicity: Involvement of Spinal Microglial Dynorphin Expression and Implications for Aconitum Processing” (Frontiers in Pharmacology, 2016)
Entries after “also recorded” stand apart in the source; their conditions may differ.

What was measured:
[1] = system: spinal nerve–ligated neuropathic rats; assay: Acute spinal neurotoxicity (flaccid paralysis and death) after intrathecal injection; format: in vivo, rat; settings: for LD50 (mortality) / TD50 (for flaccid paralysis): intrathecal bolus, observed 24 h; for Normalized TD50: average of TD50 (paralysis) and LD50
Procedure: (§1) An 18-cm polyethylene catheter (PE-10: 0.28-mm inner diameter and 0.61-mm outer diameter, Clay Adams, Parsippany, NJ, USA) with a volume of 13 μL was inserted into the lumbar level of the spinal cord as described elsewhere under inhalational isoflurane anesthesia (4% for induction and 1% for maintenance) run by an anesthesia meter (Ugo Basile Gas Anesthesia System, Comerio, Italy). Two days after recovery from anesthesia, the placement of the catheter in the spinal cord was verified by administration of 4% lidocaine (10 μL, followed by 15 μL of saline for flushing). Rats that had no motor impairment after placement of the intrathecal catheter were considered for the study, and rats that developed immediate bilateral paralysis of the hindlimbs after intrathecal administration of lidocaine were selected for the study. For intrathecal administration of the control and test articles, 10 μL of each drug was injected with a 50-μL microinjector (Shanghai Anting Micro-Injector Factory, Shanghai, China) and was flushed with 15 μL of normal saline solution.
Survival and abnormal motor-blockade behaviors, including asthma, abdominal breathing, locomotion difficulty, and paralysis, were continuously monitored for 24 h after the treatment, with special attention given during the first 4 h. Paralysis was defined as an inability to negotiate a 60-degree inclined plane ([Durant and Yaksh, 1986]). Death was defined as respiratory arrest over a period of 5 min. The paralysis and mortality rates and their latencies were quantitatively recorded and tabulated.
(§2) The percentage of maximal possible effect (% MPE) was calculated using the following formula: (postdrug threshold in ipsilateral hindlimb – baseline threshold in ipsilateral hindlimb)/(baseline threshold in contralateral hindlimb – baseline threshold in ipsilateral hindlimb) × 100 ([Bowersox et al., 1996]). A % MPE value near 100 indicates normal mechanical thresholds (i.e., near contralateral thresholds), and a value near 0 indicates allodynia. For the dose-response curve analysis, the parameters (i.e., minimum effect; Emax, median effective concentration or dose, or median toxic or lethal dose [EC50, ED50, TD50, or LD50], and Hill coefficient [n]) were calculated from the individual dose-response curves using the Prism program (version 5.01, GraphPad Software, San Diego, CA, USA). To determine the parameters of the dose-response curves, the values of response (Y) were fitted by non-linear least-squares curves to the relation Y = a + bx, where x = [D]^n/(ED50^n + [D]^n), [C]^n/(EC50^n + [C]^n), [D]^n/(TD50^n + [D]^n) or [D]^n/(LD50^n + [D]^n), to give each value of ED50, EC50, TD50, or LD50 and b (Emax) yielding a minimum residual sum of squares of deviations from the theoretical curve ([Wang and Pang, 1993]).

[2] = system: mice; settings: intravenous injection in mice; ref Mizugaki and Ito, 2005; cited from earlier work
[3] = system: mechanical allodynia in spinal L5/L6 nerve–ligated neuropathic rats; assay: Mechanical allodynia (von Frey paw withdrawal threshold) after intrathecal injection in spinal nerve-ligated neuropathic rats; format: in vivo, rat; settings: for Blockade of aconitine (100 ng) anti-allodynia / Blockade of benzolyaconine (10 μg) anti-allodynia: intrathecal pretreatment: antiserum 1:10 or nor-BNI 100 μg 0.5 h earlier, minocycline 100 μg 4 h earlier; for Own effect on withdrawal responses in contralateral or ipsilateral paws: compared with saline control
Procedure: as §1
(§3) To induce hypersensitivity to neuropathic pain, the rats were subjected to spinal nerve ligation as previously described [Kim and Chung (1992)] and [Zhang et al. (2013)]. Unilateral ligation of the L5 and L6 spinal nerves was performed under inhalational isoflurane anesthesia (4% for induction and 1% for maintenance) run by an anesthesia meter (Ugo Basile Gas Anesthesia System). The left L5 and L6 spinal nerves were isolated and tightly ligated with 6-0 silk thread. After ligation, the wound was sutured and the rats were returned to their home cages for recovery. After spinal nerve ligation, only those rats with marked unilateral allodynia to mechanical stimulation (i.e., a hindpaw withdrawal threshold of less than 8 g on the operated side) and with no major impairment were included in the study. Drug testing started 2–4 weeks after spinal nerve ligation.
To evaluate mechanical allodynia, the animals were acclimatized for at least 30 min to the test environment, namely, a plexiglass box on a metal grid (0.5 cm × 0.5 cm). The hindpaw withdrawal threshold was measured with a 2450 CE Electronic von Frey hair (IITC Life Science Inc, Woodland Hill, CA, USA). An electronic handheld transducer with a No. 15 monofilament was applied perpendicularly to the medial surface of the hindpaws with increasing force (ranging from 0.1 to 90 g) until the rat suddenly withdrew or licked the hindpaw. The lowest force that produced a withdrawal response was considered to be the threshold, which was the mean of three repeated measurements made in a 5-min interval.
as §2

[4] = system: heat hyperalgesia in spinal L5/L6 nerve–ligated neuropathic rats; assay: Heat hyperalgesia (radiant heat paw withdrawal latency) after intrathecal injection in spinal nerve-ligated neuropathic rats; format: in vivo, rat
Procedure: as §1, §3
To assess heat hyperalgesia, the rats were put in a plexiglass box on an elevated glass surface. After an adaptation period of at least 30 min, radiant heat was applied to the plantar medial surface of each hindpaw. The hindpaw withdrawal latency was measured with a Model 390G Plantar Test Analgesia Meter (IITC Life Science Inc.). To prevent tissue damage, the latency cutoff was set at 30 s. The paw withdrawal latency was defined as the time from the onset of radiant heat application to the withdrawal of the hindpaw. Both hindpaws were tested independently three times with a 5-min interval between trials. The result for each test was calculated as the mean of the three repeated measurements.
as §2, with “To determine the parameters of the dose-response curves, the values of response (Y) were fitted by non-linear least-squares curves to the relation Y = a + bx, where x = [D]^n/(ED50^n + [D]^n), [C]^n/(EC50^n + [C]^n), [D]^n/(TD50^n + [D]^n) or [D]^n/(LD50^n + [D]^n), to give each value of ED50, EC50, TD50, or LD50 and b (Emax) yielding a minimum residual sum of squares of deviations from the theoretical curve ([Wang and Pang, 1993]).” left out

[5] = system: prodynorphin gene expression in primary cultures of spinal microglia; assay: Prodynorphin gene expression in cultured primary spinal microglia (real-time quantitative PCR); format: cell-based, rat
Procedure: Glial cells were isolated from the 1-day-old neonatal rats. The isolated spinal cords were minced and then incubated with trypsin. Dissociated cells were suspended in 75-cm^2 tissue culture flasks (1 × 10^7 cells/flask) precoated with poly-L-lysine and maintained in a 5% CO2 incubator at 37°C. After culture for 10 days, the microglial cells were prepared as floating cell suspensions by shaking the flask at 260 rpm for 2 h. The aliquots were transferred to plates, and the unattached cells were removed by washing with serum-free Dulbecco’s modified Eagle’s medium.
RNA extraction, reverse transcription, and real-time quantitative PCR were performed as previously described ([Chen et al., 2012]). The spinal lumbar enlargements of rats were collected and mechanically homogenized with an electronic microhomogenizer at 4,000 rpm for 10 s in TRIzol on ice. Total RNA from the spinal lumbar enlargements were isolated using TRIzol reagent (Invitrogen, Grand Island, NY, USA). A 1-μg sample of total RNA was reverse-transcribed with a ReverTra Ace qPCR RT-Kit (Toyobo, Japan). Real-time quantitative PCR was carried out with the Mastercycler ep realplex (Eppendorf, Germany) using the RealmasterMix (SYBR Green I) (Toyobo). The fold change was calculated with the 2^-ΔΔCt method after normalization to the gene of gapdh. […]
The percentage of maximal possible effect (% MPE) was calculated using the following formula: (postdrug threshold in ipsilateral hindlimb – baseline threshold in ipsilateral hindlimb)/(baseline threshold in contralateral hindlimb – baseline threshold in ipsilateral hindlimb) × 100 ([Bowersox et al., 1996]). […] For the dose-response curve analysis, the parameters (i.e., minimum effect; Emax, median effective concentration or dose, or median toxic or lethal dose [EC50, ED50, TD50, or LD50], and Hill coefficient [n]) were calculated from the individual dose-response curves using the Prism program (version 5.01, GraphPad Software, San Diego, CA, USA). […]
Primary cultures of microglial cells taken from the spinal cords of the neonatal rats were treated with a variety of concentrations of aconitine (1 × 10^-8, 3 × 10^-8, 1 × 10^-7, 3 × 10^-7, and 1 × 10^-6 M), benzolyaconine (3 × 10^-7, 1 × 10^-6, 3 × 10^-6, 1 × 10^-5, 3 × 10^-5, and 1 × 10^-4 M) and aconine (1 × 10^-4, 3 × 10^-4, 1 × 10^-3, 3 × 10^-3, and 1 × 10^-2 M) for 2 h. As the bulleyaconitine A-increased dynorphin A level measured by the enzyme-linked immunosorbent assay was in parallel with the prodynorphin gene expression in spinal microglia from neonatal and adult rats ([Li et al., 2016]), the expression of the cellular prodynorphin gene encoding dynorphin A was only measured in this study using real-time quantitative PCR. […]

[6] = system: pain hypersensitivity in spinal nerve-ligated neuropathic rats; assay: Anti-hypersensitivity, normalized (anti-allodynia and anti-hyperalgesia ED50 averaged); format: in vivo, rat
Procedure: as §2
Table 1 summarizes the ED50 values in mole base for aconitine, benzolyaconine, and aconine to block pain hypersensitivity. Because anti-allodynia and anti-hyperalgesia were closely correlated, their ED50 values were averaged to obtain a normalized ED50 for anti-hypersensitivity. The ED50 ratios for aconitine and benzolyaconine to block mechanical allodynia and heat hyperalgesia were 1:92 and 1:110, with a normalized ED50 ratio of 1:102.

[7] = system: dynorphin A expression in spinal microglia; settings: 2016, cited from earlier work; for Effect on dynorphin A level / expression: spinal cord and cultured primary spinal microglia
[8] = system: neuropathic rats; set-up: method as in Li et al., 2016; settings: ref Li et al., 2016; cited from earlier work
[9] = system: heat hyperalgesia in spinal L5/L6 nerve–ligated neuropathic rats; set-up: method as in Li et al., 2016; settings: ref Li et al., 2016; cited from earlier work
[10] = system: mechanical allodynia in spinal L5/L6 nerve–ligated neuropathic rats; set-up: method as in Li et al., 2016; settings: ref Li et al., 2016; cited from earlier work

Compound: CCN1C[C@]2(COC)[C@H](O)C[C@H](OC)[C@]34C1[C@H]([C@H](OC)[C@H]23)[C@]1(O)[C@H]2[C@@H](O)[C@](O)(C[C@H]24)[C@@H](OC)[C@@H]1O [Aconine, aconine]
- LD50 (mortality) [1]: 1.7 µmol
- TD50 (for flaccid paralysis) [1]: 1.5 µmol
- Normalized TD50 ([1]; intrathecal): 1.6 µmol
- LD50 [2]: 120 mg/kg
- Effect on mechanical allodynia in ipsilateral paws ([3]; intrathecal, up to 300 μg): did not produce significant anti-allodynia or anti-hyperalgesia; also recorded: did not alter mechanical allodynia or thermal hyperalgesia
- Effect on heat hyperalgesia in ipsilateral paws ([4]; up to 300 μg): did not produce significant anti-allodynia or anti-hyperalgesia; also recorded: did not alter mechanical allodynia or thermal hyperalgesia
- Effect on prodynorphin gene (dynorphin A) expression ([5]; up to 10 mM, 2 h): did not significantly affect prodynorphin gene expression; also recorded: did not significantly stimulate the dynorphin A expression

Compound: CCN1CC2(COC)C(O)CC(OC)C34C5CC6(O)C(OC)C(O)C(O)(C5C6OC(=O)c5ccccc5)C(C(OC)C23)C14 (stereo not drawn) [Benzolyaconine, benzoylaconine]
- Duration of toxic motor-blockade behavior ([1]; intrathecal): 5 to 10 min
- Latency of toxic motor-blockade behavior ([1]; intrathecal): 2 to 3 min
- LD50 (mortality) [1]: 0.2 µmol
- TD50 (for flaccid paralysis) [1]: 0.2 µmol
- Normalized TD50 ([1]; intrathecal): 0.2 µmol
- LD50 [2]: 23 mg/kg
- Anti-allodynic effect in ipsilateral paws ([3]; intrathecal 10 μg): marked and reversible anti-allodynia
- Emax, blockade of mechanical allodynia ([3]; intrathecal, 1 h after injection): 56.4 % MPE
- ED50, anti-allodynia ([3]; intrathecal, % MPE at 1 h after injection): 3.6 nmol
- Effect on withdrawal responses in the contralateral paws ([3]; intrathecal, mechanical and thermal stimuli): did not significantly affect the paw withdrawal responses in the contralateral paws
- Emax, blockade of thermal hyperalgesia ([4]; 1 h after injection): 100 % MPE
- ED50, anti-hyperalgesia ([4]; % MPE at 1 h after injection): 3.5 nmol
- Normalized ED50 for anti-hypersensitivity ([6]; intrathecal, average of allodynia and hyperalgesia ED50): 3.6 nmol
- Normalized ED50 relative to that of aconitine ([6]; times greater than aconitine): 102 times
- EC50 ([5]; Rattus norvegicus, primary spinal microglia of neonatal rats, 2 h incubation, read-out: EC50, stimulation of prodynorphin gene (dynorphin A) expression): 3000 nM

Compound: C=C1C2CCC3(C4C[C@H]5C6(CCC[C@@]5(C)CN(CC)C46)[C@H]3[C@H]2O)[C@@H]1O [Bullatine A]
- Effect on dynorphin A expression ([7]; microglia in the spinal cord and cultured primary microglia, ref Huang et al.): specifically stimulated dynorphin A expression

Compound: CCCCN1CCCCC1C(=O)Nc1c(C)cccc1C (stereo not drawn) [bupivacaine]
- Effect on dynorphin A level / expression ([7]; ref Li et al.): did not stimulate dynorphin A expression

Compound: CCN(CC)CC(=O)Nc1c(C)cccc1C [lidocaine]
- Effect on dynorphin A level / expression ([7]; ref Li et al.): did not stimulate dynorphin A expression

Compound: CN(C)c1ccc(O)c2c1C[C@H]1C[C@H]3[C@H](N(C)C)C(O)=C(C(N)=O)C(=O)[C@@]3(O)C(O)=C1C2=O [minocycline, reference compound]
- Blockade of aconitine (100 ng) anti-allodynia [3]: completely prevented
- Blockade of benzolyaconine (10 μg) anti-allodynia [3]: completely alleviated benzolyaconine anti-allodynia
- Own effect on withdrawal responses in contralateral or ipsilateral paws ([3]; intrathecal): did not affect withdrawal thresholds
- Effect on antinociceptive effects of bulleyaconitine A [8]: completely abolished the antinociceptive effects of bulleyaconitine A

Compound: Oc1ccc2c3c1O[C@H]1c4[nH]c5c(c4C[C@@]4(O)[C@@H](C2)N(CC2CC2)CC[C@]314)C[C@@]1(O)[C@H]2Cc3ccc(O)c4c3[C@@]1(CCN2CC1CC1)[C@H]5O4 [nor-BNI, Nor-binaltorphimine, reference compound]
- Blockade of aconitine (100 ng) anti-allodynia [3]: completely blocked aconitine-induced anti-allodynia
- Blockade of benzolyaconine (10 μg) anti-allodynia [3]: completely alleviated benzolyaconine anti-allodynia
- Own effect on withdrawal responses in contralateral or ipsilateral paws ([3]; intrathecal): did not affect the withdrawal responses

Compound: bulleyaconitine A
- ED50, block of heat hyperalgesia [9]: 201 pmol
- EC50 ([7]; ref Li et al., read-out: EC50, stimulation of microglial dynorphin A expression): 45 nM
- Effect on dynorphin A level / expression ([7]; ref Li et al.): significantly increased the dynorphin A level
- ED50, block of mechanical allodynia [10]: 180 pmol
